Assay results reported in US11084800B2 (Achillion Pharmaceuticals, Inc., priority 2017, dated 2021).

Target: Human Factor D (Homo sapiens (Human), UniProt P00746)
Assay: Human Factor D Assay
Type: biochemical
Conditions: Factor D inhibition, assay of Example 10; read-out: IC5 (Stars)
Outline: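 Thioester substrate Z-L-Lys-SBz (100 μM) with Ellman's reagent DTNB (100 μM) reports activity of 80 nM human serum-derived enzyme, kinetically at 405 nm over 30 min. Compound preincubated 5 min, room temperature, pH 7.5 Tris/1 M NaCl; IC50 by nonlinear fit of rates.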

Chain of Human Factor D (P00746 26-253): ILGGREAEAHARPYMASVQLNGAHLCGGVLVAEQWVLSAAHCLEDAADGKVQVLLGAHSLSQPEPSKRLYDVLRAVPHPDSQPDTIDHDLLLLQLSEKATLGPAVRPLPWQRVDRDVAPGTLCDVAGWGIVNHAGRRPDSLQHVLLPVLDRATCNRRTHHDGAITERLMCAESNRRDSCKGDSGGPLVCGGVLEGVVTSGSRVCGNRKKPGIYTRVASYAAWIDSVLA

| Structure (SMILES) | IC50 |
| --- | --- |
| CC(=O)c1nn(CC(=O)N2[C@H](C(=O)Nc3nc(Br)c(F)cc3C)C[C@@]3(Cc4nnc(C)o4)C[C@@H]23)c2c(C)nc(-c3cnc(C)nc3)cc12 [Compound 485, (1R,3S,5R)-2-(2-(3-acetyl-7-methyl-5-(2-methylpyrimidin-5-yl)-1H-pyrazolo[3,4-c]pyridin-1-yl)acetyl)-N-(6-bromo-5-fluoro-3-methylpyridin-2-yl)-5-((5-methyl-1,3,4-oxadiazol-2-yl)methyl)-2-azabicyclo[3.1.0]hexane-3-carboxamide] | < 1000 nM |
| CC(=O)c1nn(CC(=O)N2[C@H](C(=O)Nc3nc(Br)ccc3Cl)C[C@@]3(Cc4nnc(C)o4)C[C@@H]23)c2c(C)cc(-c3cnc(C)nc3)cc12 [Compound 486, (1R,3S,5R)-2-(2-(3-acetyl-7-methyl-5-(2-methylpyrimidin-5-yl)-1H-indazol-1-yl)acetyl)-N-(6-bromo-3-chloropyridin-2-yl)-5-((5-methyl-1,3,4-oxadiazol-2-yl)methyl)-2-azabicyclo[3.1.0]hexane-3-carboxamide] | < 1000 nM |
| CCCNC(=O)c1nn(CC(=O)N2[C@H](C(=O)NCCC)C[C@@]3(C)C[C@@H]23)c2ccc(-c3cnc(C)nc3)cc12 [Compound 487, 1-(2-((1R,3S,5R)-5-methyl-3-(propylcarbamoyl)-2-azabicyclo[3.1.0]hexan-2-yl)-2-oxoethyl)-5-(2-methylpyrimidin-5-yl)-N-propyl-1H-indazole-3-carboxamide] | 1000 to 10000 nM |
| CCCCNC(=O)[C@@H]1C[C@@]2(C)C[C@H]2N1C(=O)Cn1nc(C(C)=O)c2cc(-c3cnc(C)nc3)ccc21 [Compound 488, (1R,3S,5R)-2-(2-(3-acetyl-5-(2-methylpyrimidin-5-yl)-1H-indazol-1-yl)acetyl)-N-butyl-5-methyl-2-azabicyclo[3.1.0]hexane-3-carboxamide] | < 1000 nM |
| CC(=O)c1nn(CC(=O)N2[C@H](C(=O)Nc3cc(C)cc(Br)n3)C[C@@]3(C)C[C@@H]23)c2ccc(-c3cnc(C)nc3)cc12 [Compound 492, (1R,3S,5R)-2-(2-(3-acetyl-5-(2-methylpyrimidin-5-yl)-1H-indazol-1-yl)acetyl)-N-(6-bromo-4-methylpyridin-2-yl)-5-methyl-2-azabicyclo[3.1.0]hexane-3-carboxamide] | < 1000 nM |
| CC(=O)c1nn(CC(=O)N2[C@H](C(=O)Nc3cc(C(=O)O)cc(Br)n3)C[C@@]3(C)C[C@@H]23)c2ccc(-c3cnc(C)nc3)cc12 [Compound 493, 2-[(1R,3S,5R)-2-{2-[3-Acetyl-5-(2-methylpyrimidin-5-yl)indazol-1-yl]acetyl}-5-methyl-2-azabicyclo[3.1.0]hexane-3-amido]-6-bromopyridine-4-carboxylic Acid] | < 1000 nM |

Same assay, conditions: Table 8; Factor D 80 nM, substrate Z-L-Lys-SBz; read-out: IC50

| Structure (SMILES) | IC50 |
| --- | --- |
| Cc1ncc(-c2ccc3c(c2)c(C(=O)NCCN)nn3CC(=O)N2[C@H](C(=O)Nc3nc(Br)ccc3C)C[C@@]3(C)C[C@@H]23)cn1 [Compound 489, N-(2-aminoethyl)-1-(2-((1R,3S,5R)-3-((6-bromo-3-methylpyridin-2-yl)carbamoyl)-5-methyl-2-azabicyclo[3.1.0]hexan-2-yl)-2-oxoethyl)-5-(2-methylpyrimidin-5-yl)-1H-indazole-3-carboxamide] | 1000 to 10000 nM |
| CNCCNC(=O)c1nn(CC(=O)N2[C@H](C(=O)Nc3nc(Br)ccc3C)C[C@@]3(C)C[C@@H]23)c2ccc(-c3cnc(C)nc3)cc12 [Compound 490, 1-(2-((1R,3S,5R)-3-((6-bromo-3-methylpyridin-2-yl)carbamoyl)-5-methyl-2-azabicyclo[3.1.0]hexan-2-yl)-2-oxoethyl)-N-(2-(methylamino)ethyl)-5-(2-methylpyrimidin-5-yl)-1H-indazole-3-carboxamide] | 1000 to 10000 nM |
| Cc1ncc(-c2ccc3c(c2)c(C(=O)NCCN(C)C)nn3CC(=O)N2[C@H](C(=O)Nc3nc(Br)ccc3C)C[C@@]3(C)C[C@@H]23)cn1 [Compound 491, 1-(2-((1R,3S,5R)-3-((6-bromo-3-methylpyridin-2-yl)carbamoyl)-5-methyl-2-azabicyclo[3.1.0]hexan-2-yl)-2-oxoethyl)-N-(2-(dimethylamino)ethyl)-5-(2-methylpyrimidin-5-yl)-1H-indazole-3-carboxamide] | > 10000 nM |
